One data set concerns CYP1. The settings on record: cited from earlier work.
A further data set addresses T1, CYP1A1 (Homo sapiens, UniProt P04798).
T1 sequence (P04798 1-512): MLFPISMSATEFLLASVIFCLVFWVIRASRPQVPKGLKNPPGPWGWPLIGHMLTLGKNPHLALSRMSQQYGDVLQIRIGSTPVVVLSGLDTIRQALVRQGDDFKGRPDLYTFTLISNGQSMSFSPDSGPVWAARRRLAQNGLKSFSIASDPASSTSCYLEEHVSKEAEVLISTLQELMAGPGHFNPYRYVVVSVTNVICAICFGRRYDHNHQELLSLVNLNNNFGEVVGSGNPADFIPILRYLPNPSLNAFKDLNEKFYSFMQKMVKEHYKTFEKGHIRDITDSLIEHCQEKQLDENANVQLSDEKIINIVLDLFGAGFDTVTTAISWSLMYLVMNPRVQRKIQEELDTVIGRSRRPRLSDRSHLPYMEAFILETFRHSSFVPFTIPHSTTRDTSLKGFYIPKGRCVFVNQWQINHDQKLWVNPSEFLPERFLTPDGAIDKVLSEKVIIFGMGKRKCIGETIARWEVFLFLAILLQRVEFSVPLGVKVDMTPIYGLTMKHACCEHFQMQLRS
Nature of the data set: in vitro. The settings on record: pH 7.4, CYP1A1 enzyme activity (%), MNF 2.5 µM, positive control.

For data set [1], the system named is (DOX)-induced cardiotoxicity. The settings on record: zebrafish; cited from earlier work. The text has this:
In addition to its implication in the resolution of inflammation and tissue injury, Asnani et al. recently concluded that inhibition of CYP1 was protective of (DOX)-induced cardiotoxicity.

This is an account of results in PMC11435205, “TnP and AHR-CYP1A1 Signaling Crosstalk in an Injury-Induced Zebrafish Inflammation Model” (Pharmaceuticals, 2024).

Description for CYP1A1: The ethoxyresorufin deethylase (EROD) assay was performed using recombinant human CYP1A1 to determine TnP-mediated inhibition of CYP1A1 enzyme activity according to Wincent et al. [47], with minor changes. In brief, 2.5 nM CYP1A1 was pre-incubated with different concentrations of TnP in Tris-HCl buffer (0.1 M, pH 7.4) with EDTA (1 mM) at 37 °C for 3 min followed by the addition of ethoxyresorufin (0.1 μM) and NADPH (0.4 mM). Formation of resorufin was quantified in triplicates using a Tecan Infinite F200 multiwell plate reader (Tecan Group Ltd., Männedorf, Switzerland) with the excitation/emission wavelengths of 530/590 nm every 4 s for 2 min. The enzyme activity was determined by comparing the rate of resorufin formation compared to the vehicle control DMSO. The TnP concentration causing 50% inhibition of EROD activity (IC50) was estimated by nonlinear dose–response inhibition analysis using GraphPad Prism 9.1 (GraphPad Software, San Diego, CA, USA).
All the concentration were read at least in triplicate. Dimethyl sulfoxide – DMSO was tested
as negative control, and 3’-methoxy-4’-nitroflavone – MNF as positive control.

For the compound `O=Cc1c2c(cc3c1=Nc1ccccc1-3)=Nc1ccccc1-2` [FICZ], the clearance dependence entry in the data set on CYP1 is “clearance is dependent on CYP1”.

For the compound `COc1cc(-c2cc(=O)c3ccccc3o2)ccc1[N+](=O)[O-]` [MNF], the activity worked out at 1.54% at CYP1A1 (replicate I); 1.54% on CYP1A1 (replicate II); 1.71% at CYP1A1 (replicate III); 1.67% at CYP1A1 (replicate IV); 0.51% at CYP1A1 (replicate IX); 1.31% at CYP1A1 (replicate V). In addition, the activity on CYP1A1 (replicate VI) is 1.7%; at CYP1A1 (replicate VII), 0.51%; at CYP1A1 (replicate VIII) it was 0.51%.

Consider `COc1c2ccoc2cc2oc(C)cc(=O)c12` [visnagin], for which, in data set [1], the “effect on DOX-induced cardiotoxicity” value is on record as “cardioprotection”.
